Literature values as cited in patent US12097208B2, “Method for treating nasal, sinonasal, and nasopharyngeal tissue infection and/or inflammation” (OTICARA, INC., priority 2019, dated 2024).

How the values were obtained:
[1] = in vivo

Compound	Biological Half Life [1]	also measured
CCC(=O)OCC(=O)[C@@]1(OC(=O)CC)[C@@H](C)C[C@H]2C3CCC4=CC(=O)C=CC4(C)[C@@]3(F)[C@@H](O)CC21C (stereo partly drawn) [Betamethasone dipropionate, 9-Fluoro-11β,17,21-trihydroxy-16β-methylpregna-1,4-diene-3,20-dione 17,21-dipropionate]	36-54 Hours	–
C[C@H]1C[C@@H]2[C@H]([C@@H](O)C[C@@]3(C)[C@H]2CC[C@]3(O)C(=O)CO)[C@@]2(C)C=CC(=O)C=C12 [Methyl-prednisolone]	18-36 Hours	–
Clc1ccccc1C(c1ccccc1)(c1ccccc1)n1ccnc1 [clotrimazole]	–	Antibacterial activity against Gardnerella vaginalis (Gardnerella vaginalis): antibacterial activity; Antibacterial activity against Corynebacteria (Corynebacteria): antibacterial activity; Antibacterial activity against Staphylococci (Staphylococci): antibacterial activity; Antibacterial activity against Steptococci (Steptococci): antibacterial activity; Effect on Pseudomonas aeruginosa (Pseudomonas aeruginosa): reduction
C[C@]12CCC(=O)C=C1CC[C@@H]1[C@@H]2[C@@H](O)C[C@@]2(C)[C@H]1CC[C@]2(O)C(=O)CO [hydrocortisone]	8-12 Hours	–
C[C@]12C=CC(=O)C=C1CC[C@@H]1[C@@H]2[C@@H](O)C[C@@]2(C)[C@H]1CC[C@]2(O)C(=O)CO [prednisolone]	18-36 Hours	–
C[C@]12C=CC(=O)C=C1CC[C@H]1[C@@H]3C[C@@H](O)[C@](O)(C(=O)CO)[C@@]3(C)C[C@H](O)[C@@]12F [triamcinolone]	18-36 Hours	–
